Experimental findings from US7592457B2 (Korea Research Institute of Chemical Technology, priority 2004, dated 2009) are described below.

The inhibition is how much of the control response was suppressed. In general, IC50 refers to the concentration needed to halve the response being measured.

Test [1] deals with D1 (Homo sapiens, UniProt P21728). Nature of the test: Radioligand binding for selectivity, D1. Particulars: read-out: Binding affinity (Inhibition rate % at 10 μM) D1.
For test [2], the target named is T1, human serotonin 5-HT6 receptor (Homo sapiens, UniProt P50406).
T1 construct: made in house; host or cells: Sf21 insect cells (pBacPAK8 baculovirus vector)
T1 sequence (P50406 whole entry): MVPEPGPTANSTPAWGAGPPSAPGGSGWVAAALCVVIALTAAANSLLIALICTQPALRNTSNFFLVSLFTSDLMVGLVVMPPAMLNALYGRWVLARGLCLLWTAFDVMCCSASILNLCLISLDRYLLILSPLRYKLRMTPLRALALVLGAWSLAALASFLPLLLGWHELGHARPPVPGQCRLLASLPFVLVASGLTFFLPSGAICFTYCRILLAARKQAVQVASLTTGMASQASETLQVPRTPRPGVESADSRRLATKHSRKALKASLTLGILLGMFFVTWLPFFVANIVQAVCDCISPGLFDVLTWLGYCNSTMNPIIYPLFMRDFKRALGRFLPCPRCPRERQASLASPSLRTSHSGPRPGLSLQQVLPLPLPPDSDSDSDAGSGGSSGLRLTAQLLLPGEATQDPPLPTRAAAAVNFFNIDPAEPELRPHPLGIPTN
Put plainly: [3H]LSD binding at cloned 5-HT6 receptors. Conditions: for IC50: [3H]LSD 1.87 nM, cloned receptor membranes, 37° C., 60 min, read-out: IC50; for inhibition at 10 µM: read-out: Binding affinity (Inhibition rate % at 10 μM) 5HT6.

Test [3] has as its target T2, 5-HT1a (Homo sapiens, UniProt P08908).
T2 construct: purchased Euroscreen/BioSignal Packard Inc
T2 sequence (P08908 1-422): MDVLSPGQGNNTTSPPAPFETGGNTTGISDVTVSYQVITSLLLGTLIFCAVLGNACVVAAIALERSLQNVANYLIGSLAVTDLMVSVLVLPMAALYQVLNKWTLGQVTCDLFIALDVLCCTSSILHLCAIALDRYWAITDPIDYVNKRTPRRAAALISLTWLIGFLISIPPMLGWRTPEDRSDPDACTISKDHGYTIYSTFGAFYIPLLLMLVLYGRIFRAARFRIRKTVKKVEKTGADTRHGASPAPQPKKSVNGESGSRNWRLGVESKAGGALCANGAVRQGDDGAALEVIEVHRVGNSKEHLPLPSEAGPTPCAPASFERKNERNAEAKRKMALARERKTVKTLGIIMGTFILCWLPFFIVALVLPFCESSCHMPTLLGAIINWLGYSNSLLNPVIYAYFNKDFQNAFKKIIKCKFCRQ
Put plainly: Radioligand binding, 5-HT1a ([3H]8-OH-DPAT). Conditions: read-out: Binding affinity (Inhibition rate % at 10 μM) 5HT1a. How it is done:
(§1) Radioligand bindings were performed according to the test method provided by the supplier of receptor membrane (Euroscreen/BioSignal Packard Inc.).

For test [4], the target named is T3, hD4.2 receptor (Homo sapiens, UniProt P21917, DEL265-296).
T3 construct: purchased BioSignal Packard Inc., Montreal, Canada
T3 sequence (P21917 with tags, fused parts or gaps DEL265-296): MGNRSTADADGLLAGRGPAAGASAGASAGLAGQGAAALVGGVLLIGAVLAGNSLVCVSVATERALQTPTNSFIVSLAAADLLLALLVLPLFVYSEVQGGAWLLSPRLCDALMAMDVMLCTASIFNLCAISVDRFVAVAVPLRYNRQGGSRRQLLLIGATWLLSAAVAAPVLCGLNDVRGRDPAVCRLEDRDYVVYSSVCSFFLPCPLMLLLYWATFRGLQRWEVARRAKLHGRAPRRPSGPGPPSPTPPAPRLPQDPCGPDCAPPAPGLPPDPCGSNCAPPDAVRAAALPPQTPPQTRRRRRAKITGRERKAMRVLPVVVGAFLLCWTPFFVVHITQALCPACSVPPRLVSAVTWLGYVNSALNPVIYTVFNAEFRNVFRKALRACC
Nature of the test: Radioligand binding, dopamine D4 ([3H]YM-09151-2). Conditions: read-out: Binding affinity (Inhibition rate % at 10 μM) D4. As to the method: (§2) The radioligands used were [^3H] spiperone (for hD2L and hD3 receptors, 1 nM) and [^3H] YM-09151-2 (for hD4.2 receptor, 0.06 nM). Radioligand bindings were performed by the protocols provided by the supplier of receptor membranes (BioSignal Packard Inc., Montreal, Canada). Briefly, the buffer used in D2 or D3 receptor binding assay was 50 mM Tris-HCl (pH 7.4), 10 mM MgCl2, 1 mM EDTA, or 50 mM Tris-HCl (pH 7.4), 5 mM MgCl2, 5 mM EDTA, 5 mM KCl, 1.5 mM CaCl2, 120 mM NaCl, respectively. In [^3H] YM-09151-2 receptor binding assays, the buffer containing 50 mM Tris-HCl (pH 7.4), 5 mM MgCl2, 5 mM EDTA, 5 mM KCl and 1.5 mM CaCl2 was used. Nonspecific binding was determined with haloperidol (10 μM) or clozapine (10 μM) for D2 and D3, and D4 receptors, respectively. Competition binding studies were carried out with 7-8 concentrations of the test compound run in duplicate tubes, and isotherms from three assays were calculated by computerized nonlinear regression analysis (GraphPad Prism Program, San Diego, […]) to yield median inhibitory concentration (IC50) values.

Test [5] addresses T4, 5-HT2a (Homo sapiens, UniProt P28223).
T4 construct: purchased Euroscreen/BioSignal Packard Inc
Put plainly: Radioligand binding, 5-HT2a ([3H]Ketanserin). Conditions: read-out: Binding affinity (Inhibition rate % at 10 μM) 5HT2a. As to the method: as §1

The target of test [6] is T5, 5-HT7 (Homo sapiens, UniProt P34969).
T5 construct: purchased Euroscreen/BioSignal Packard Inc
T5 sequence (P34969 whole entry): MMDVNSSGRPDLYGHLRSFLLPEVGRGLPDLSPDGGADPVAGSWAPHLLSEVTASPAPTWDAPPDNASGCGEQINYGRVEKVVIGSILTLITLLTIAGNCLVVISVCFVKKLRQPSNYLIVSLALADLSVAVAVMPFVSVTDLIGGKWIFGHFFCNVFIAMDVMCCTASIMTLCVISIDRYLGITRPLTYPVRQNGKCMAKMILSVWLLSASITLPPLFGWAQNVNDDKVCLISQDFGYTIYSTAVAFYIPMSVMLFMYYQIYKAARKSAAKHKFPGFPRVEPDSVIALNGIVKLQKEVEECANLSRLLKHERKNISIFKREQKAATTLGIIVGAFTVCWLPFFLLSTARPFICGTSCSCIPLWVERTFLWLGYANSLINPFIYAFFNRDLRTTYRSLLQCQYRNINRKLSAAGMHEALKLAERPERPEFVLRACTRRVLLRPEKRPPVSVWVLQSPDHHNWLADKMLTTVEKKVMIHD
Put plainly: Radioligand binding, 5-HT7 ([3H]LSD). Particulars: read-out: Binding affinity (Inhibition rate % at 10 μM) 5HT7. How it is done:
as §1

Test [7] deals with T6, hD2L receptor (Homo sapiens, UniProt P14416).
T6 construct: purchased BioSignal Packard Inc., Montreal, Canada
T6 sequence (P14416 whole entry): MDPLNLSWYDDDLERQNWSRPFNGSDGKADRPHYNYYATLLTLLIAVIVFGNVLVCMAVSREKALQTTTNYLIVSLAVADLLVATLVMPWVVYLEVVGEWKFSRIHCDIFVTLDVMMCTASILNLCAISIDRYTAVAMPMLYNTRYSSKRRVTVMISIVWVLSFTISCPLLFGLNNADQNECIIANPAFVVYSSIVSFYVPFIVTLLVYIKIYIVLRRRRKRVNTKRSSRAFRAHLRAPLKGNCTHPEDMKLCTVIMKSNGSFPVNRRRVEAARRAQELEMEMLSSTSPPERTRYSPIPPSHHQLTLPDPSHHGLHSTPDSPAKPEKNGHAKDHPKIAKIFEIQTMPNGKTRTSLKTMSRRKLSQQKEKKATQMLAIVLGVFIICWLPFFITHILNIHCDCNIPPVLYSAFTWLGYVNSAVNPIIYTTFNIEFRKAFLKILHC
Put plainly: Radioligand binding, dopamine D2 ([3H]spiperone). Particulars: read-out: Binding affinity (Inhibition rate % at 10 μM) D2. How it is done: as §2

The target of test [8] is T7, hD3 receptor (Homo sapiens, UniProt P35462).
T7 construct: purchased BioSignal Packard Inc., Montreal, Canada
T7 sequence (P35462 whole entry): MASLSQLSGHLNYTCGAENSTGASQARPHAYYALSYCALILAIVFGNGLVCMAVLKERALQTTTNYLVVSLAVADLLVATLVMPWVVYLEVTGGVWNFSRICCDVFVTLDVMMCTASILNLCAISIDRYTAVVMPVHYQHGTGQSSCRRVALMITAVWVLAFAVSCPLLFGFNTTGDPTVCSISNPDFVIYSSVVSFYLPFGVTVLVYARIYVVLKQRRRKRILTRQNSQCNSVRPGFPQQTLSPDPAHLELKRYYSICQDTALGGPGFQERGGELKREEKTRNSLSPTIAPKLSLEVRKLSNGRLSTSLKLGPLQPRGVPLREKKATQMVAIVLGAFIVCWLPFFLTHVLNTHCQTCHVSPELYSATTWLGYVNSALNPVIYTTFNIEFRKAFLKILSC
Nature of the test: Radioligand binding, dopamine D3 ([3H]spiperone). Conditions: read-out: Binding affinity (Inhibition rate % at 10 μM) D3. How it is done:
as §2

Test [9] deals with T8, 5-HT2c (Homo sapiens, UniProt P28335).
T8 construct: purchased Euroscreen/BioSignal Packard Inc
T8 sequence (P28335 33-458): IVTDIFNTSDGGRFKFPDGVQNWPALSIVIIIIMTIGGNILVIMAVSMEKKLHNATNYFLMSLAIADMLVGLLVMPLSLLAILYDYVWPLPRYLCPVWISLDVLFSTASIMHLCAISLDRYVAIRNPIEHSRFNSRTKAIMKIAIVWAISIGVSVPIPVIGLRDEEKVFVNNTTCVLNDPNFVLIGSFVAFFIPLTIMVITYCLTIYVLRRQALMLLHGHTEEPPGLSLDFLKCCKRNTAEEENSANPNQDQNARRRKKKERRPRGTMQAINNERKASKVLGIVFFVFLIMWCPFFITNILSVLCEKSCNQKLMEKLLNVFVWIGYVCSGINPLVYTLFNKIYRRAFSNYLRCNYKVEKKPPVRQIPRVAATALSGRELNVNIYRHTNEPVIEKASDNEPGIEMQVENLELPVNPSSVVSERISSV
Nature of the test: Radioligand binding, 5-HT2c ([3H]Mesulergine). Particulars: read-out: Binding affinity (Inhibition rate % at 10 μM) 5HT2c. As to the method:
as §1

Chain of D1 (P21728 whole entry): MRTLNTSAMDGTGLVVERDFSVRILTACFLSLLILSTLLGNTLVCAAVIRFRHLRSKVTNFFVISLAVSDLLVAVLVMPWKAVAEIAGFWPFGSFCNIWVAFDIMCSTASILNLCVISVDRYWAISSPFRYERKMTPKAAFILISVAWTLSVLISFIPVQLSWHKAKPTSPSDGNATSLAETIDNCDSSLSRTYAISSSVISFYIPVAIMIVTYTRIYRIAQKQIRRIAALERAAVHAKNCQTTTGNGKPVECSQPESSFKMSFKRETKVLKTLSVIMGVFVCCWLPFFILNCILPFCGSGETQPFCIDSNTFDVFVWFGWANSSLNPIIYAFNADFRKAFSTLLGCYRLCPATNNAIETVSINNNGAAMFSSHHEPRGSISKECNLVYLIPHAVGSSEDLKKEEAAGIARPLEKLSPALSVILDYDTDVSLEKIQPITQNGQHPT
T4 sequence (P28223 whole entry): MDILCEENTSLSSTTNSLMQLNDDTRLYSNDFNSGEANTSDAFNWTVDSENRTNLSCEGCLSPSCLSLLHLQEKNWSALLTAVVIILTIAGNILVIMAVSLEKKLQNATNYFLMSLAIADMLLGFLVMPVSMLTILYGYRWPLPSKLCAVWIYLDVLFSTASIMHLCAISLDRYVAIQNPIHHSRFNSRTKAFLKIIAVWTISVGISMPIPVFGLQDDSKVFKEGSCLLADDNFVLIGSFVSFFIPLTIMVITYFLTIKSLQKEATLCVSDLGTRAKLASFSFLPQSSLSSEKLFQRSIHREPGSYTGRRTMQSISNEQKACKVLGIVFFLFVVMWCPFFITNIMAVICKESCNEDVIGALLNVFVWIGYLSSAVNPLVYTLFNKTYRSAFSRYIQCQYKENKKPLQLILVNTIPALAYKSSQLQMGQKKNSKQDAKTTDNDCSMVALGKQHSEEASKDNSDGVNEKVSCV

`C[C@H](NC(=O)Nc1cccc([C@]2(C)C(=O)Nc3cc(Cl)cc(Cl)c3C2=O)c1)c1ccccc1` [Example 44, 1-(S)-[3-(5,7-dichloro-3-methyl-2,4-dioxo-1,2,3,4-tetrahydro-quinoline-3-yl) -phenyl]-3-(1-(S) -phenyl-ethyl) -urea]: the inhibition at 10 µM in test [1] stood at 35%; in test [2] it was 73.8%; in [3], 25.4%; in [4] it was 0%; in test [5], 58.5%; in [6] it was 32.2%. Besides, the inhibition at 10 µM in test [7] was determined as 11.5%; in [8] it was 16.2%; in [9] it was 21.5%. For the same molecule, in test [2], the IC50 was determined as 791 nM.
As for `COc1ccc(C2(C)C(=O)Nc3c(Br)cc(Br)cc3C2=O)cc1N` (stereo not shown) [Example 29, 3-(3-amino-4-methoxy-phenyl)-6,8-dibromo-3-methyl-1H-quinoline-2,4-dione], the inhibition at 10 µM in [1] was 23.6%; in test [2] it was 68.5%; in [3] it was 40.7%; in test [4] it was 11.6%; in test [5], 21.1%; in test [6], 28.1%. Moreover, the figures for the inhibition at 10 µM in [7], in [8] and in test [9] were 5.6%, 43.8% and 40.6%, respectively. Besides, in test [2], the concentration for half-maximal inhibition (IC50) came to 1550 nM.
As to `CC1(c2ccc(Br)cc2Br)C(=O)Nc2cc(Cl)ccc2C1=O` (stereo not shown) [Example 45, 7-chloro-3-(2,4-dibromo-phenyl)-3-methyl-1H-quinoline-2,4-dione], the inhibition at 10 µM in test [1] turned out to be 42.3%; in test [2] it was 66%; in test [3] it was 60.3%; in test [4], 0%; in [5], 23%; in [6], 29.5%. Also, the inhibition at 10 µM in test [7] stood at 13%; in test [8] it was 5.6%; in test [9], 31.6%. Also, the IC50 in test [2] stood at 2220 nM.
For the molecule `CN1CCN(c2cc(Cl)c3c(c2)NC(=O)C(C)(c2ccc(N)cc2)C3=O)CC1` (stereo not shown) [Example 48, 3-(4-amino-phenyl) -5-chloro-3-methyl-7-(4-methyl-piperazine-1-yl)-1H-quinoline-2,4-dione], the inhibition at 10 µM was found to be 27.4% in test [1]; 71.6% in test [2]; 35% in test [3]; 0% in [4]; 37.2% in test [5]; 5.6% in [6]. The inhibition at 10 µM is 19.6% in test [7], 8.7% in test [8] and 2.5% in [9]. Besides, in [2], the IC50 was found to be 1080 nM.
In the case of `CC1(c2ccc([N+](=O)[O-])cc2)C(=O)Nc2cc(Cl)cc(Cl)c2C1=O` (stereo not shown) [Example 14, 5,7-dichloro-3-methyl-3-(4-nitro-phenyl)-1H-quinoline-2,4-dione], the inhibition at 10 µM came out at 6.5% in [1]; 71.2% in [2]; 60.5% in [3]; 0% in [4]; 54.1% in [5]; 10.8% in test [6]. The inhibition at 10 µM in test [7] is 26.5%; in [8], 30.7%; in test [9] it was 3.8%. Also, the IC50 in test [2] came out at 870 nM.
Consider `CC1(c2ccc(I)cc2)C(=O)Nc2cc(Cl)cc(Cl)c2C1=O` (stereo not shown) [Example 16, 5,7-dichloro-3-(4-iodo-phenyl)-3-methyl-1H-quinoline-2,4-dione], for which the inhibition at 10 µM in test [1] amounted to 24.7%; in [2], 70.9%; in test [3], 43.5%; in [4] it was 1.3%; in test [5], 47.2%; in test [6] it was 50.7%. In addition, the figures for the inhibition at 10 µM in test [7], in test [8] and in [9] were 20.1%, 10% and 34.5%, respectively. For the same molecule, the IC50 in [2] amounted to 1550 nM.
Consider `CC1(c2ccc(Cl)cc2)C(=O)Nc2cc(Cl)cc(Cl)c2C1=O` (stereo not shown) [Example 17, 5,7-dichloro-3-(4-chloro-phenyl)-3-methyl-1H-quinoline-2,4-dione], for which the inhibition at 10 µM in test [1] amounted to 13.8%; in test [2], 69.8%; in test [3], 26.7%; in test [4], 0.5%; in test [5], 30.2%; in test [6], 26.9%. In addition, the inhibition at 10 µM in test [7] came out at 7.5%; in test [8] it was 16.5%; in [9] it was 21.2%. Besides, in test [2], the IC50 came out at 1430 nM.
Take `CCNc1ccc(C2(C)C(=O)Nc3cc(Cl)cc(Cl)c3C2=O)cc1` (stereo not shown) [Example 41, 5,7-dichloro-3-methyl-3-(4-ethylamino-phenyl)-1H-quinoline-2,4-dione]: the inhibition at 10 µM in test [1] was 24%; in [2], 67.7%; in test [3], 15.7%; in test [4], 0%; in [5], 10.8%; in test [6], 15.4%. The inhibition at 10 µM is 25.2% in test [7], 12.6% in [8] and 14% in test [9]. In test [2], the IC50 was 46 nM. Besides, the “5-HT6 affinity compared with known selective antagonists” value in test [2] (in words) was “almost same affinities as or better affinities than known selective antagonists”.
In the case of `CC1(c2ccc([N+](=O)[O-])cc2)C(=O)Nc2cc(Cl)c(Cl)cc2C1=O` (stereo not shown) [Example 36, 6,7-dichloro-3-methyl-3-(4-nitro-phenyl)-1H-quinoline-2,4-dione], the inhibition at 10 µM in test [1] came out at 12.6%; in [2], 71.9%; in test [3] it was 42.1%; in test [4] it was 0%; in [5] it was 13.2%; in test [6] it was 16.5%. Also, the inhibition at 10 µM stood at 16.5% in test [7], 11.9% in test [8] and 8.2% in test [9]. The 50% inhibitory concentration (IC50) in test [2] turned out to be 645 nM.
